From paper PMC7900953, “Location of a single histidine within peptide carriers increases mRNA delivery” (The Journal of Gene Medicine, 2020)

What was measured:
MDA‐MB‐231 cells [1] = assay: Cell viability assay (trypan blue exclusion); assay type: cell-based; details: polymer alone (4 µg), 5 h in Opti-MEM, then DMEM/10% FBS 19 h
Method: MDA‐MB‐231 cells were seeded at 5.0 × 10^4 per well in a 24‐tissue culture plate and incubated overnight in DMEM supplemented with 10% fetal bovine serum (FBS) serum. The media was then changed to Opti‐MEM and the cells were treated with either the polymer (4 μg) or the polyplex (4 μg of HK; 1 μg of mRNA) for 5 hours. After the media was changed to DMEM/10% FBS for 19 hours, the cell viability was measured using the trypan blue cell exclusion assay (Trypan Blue solution, 0.4%; Sigma‐Aldrich, St Louis, MO, USA). ^41
After the medium was changed to Opti-MEM, either the polymer (4 µg) or the polyplex (4 µg HK; 1 µg mRNA) was added to the cells for 5 h. The media was then changed to DMEM/10% FBS for 19 h and the cell viability was determined using the trypan cell exclusion assay.

MDA‐MB‐231 cells [2] = assay: In vitro uptake of HK polyplexes by fluorescence microscopy; assay type: cell-based; details: HK:mRNA 4:1; for Aggregates of polyplexes seen by fluorescence microscopy: 4 hours after transfection
Method: With the mRNA labeled with Cy5, HK polyplexes at a ratio of 4:1 (HK:mRNA) were prepared as described for in vitro transfection. The labeled polyplexes were incubated with MDA‐MB‐231 cells for four hours in Opti‐MEM. After the cells were washed with phosphate‐buffered saline (PBS) (Quality Biologicals, Gaithersburg, MD, USA), they were incubated for 30 minutes with LysoTracker Green DND‐26 (Cell Signaling Technology, Inc., Danvers, MA, USA), a dye that stains acidic endosomes and lysosomes. Then after the cells were washed twice with PBS and once with 1% Triton‐X, they were fixed (4% formalin/1% glutaraldehyde) and the nuclei were stained with chromatin dye Hoechst 33342 (Invitrogen, Carlsbad, CA, USA). Images were obtained with a Nikon TE2000‐S (Nikon, Tokyo, Japan) with a mercury lamp light source usng the filter sets: Ex‐357(20)/Em‐460(60) (Hoechst); Ex‐480(30)/Em‐535(45) (Lysotracker green DND‐26); Ex‐620(50)/Em‐690(50) (Cy5‐labeled‐mRNA). Red/green ratios were measured on 20 intracellular acidic vesicles (one per cell) using ImageJ, version 1.52. ^42
FIGURE 5 Fluorescence images of different mRNA polyplexes within acidic vesicles of MDA‐MB‐231 cells. (A) Four hours after transfection with labeled mRNA by H3K(+H)4b (upper) or H3K4b (lower) carriers, intracellular acidic vesicles were stained with Lysotracker green. The cells were then fixed, and the nuclei were stained with Hoesch 33342 dye. Images were obtained with a Nikon TE2000‐S using a mercury lamp light source and the filter sets delineated in the Materials and methods (green, acidic vesicles; red, cynanine 5‐labeled mRNA; blue, nuclei labeled with Hoescht dye). […] Arrows indicate the irregularly shaped mRNA aggregates frequently observed with H3K4b carrier. (B) Analysis of the amount of HK (H3K4b or H3K(+H)4b) polyplexes within acidic endosomal vesicles of MDA‐MB‐231 cells. Images of HK polyplexes labeled with cyanine5 (red emission) were imported into endosomal vesicles (green emission). The red/green ratios were measured on 20 intracellular acidic vesicles using ImageJ. […]

MDA‐MB‐231 cells [3] = assay: In vitro uptake of HK polyplexes by flow cytometry; assay type: cell-based; details: HK:mRNA 4:1, 1, 2 and 4 hours, DMEM/10% FBS
Method: Intracellular uptake of polymer–mRNA complex in MDA‐MB‐231 was measured by flow cytometry. Twenty‐four hours before the treatment, cells were plated in a 24‐well plate. The polymer‐mRNA polyplex was formed in Opti‐MEM at a ratio of 4:1 at room temperature for 30 minutes. After the cell culture medium was replaced with DMEM/10% FBS, H3K(+H)4b‐ or H3K4b‐mRNA polyplexes (cyanine 5'‐labeled mRNA; Trilink Biotechnologies, Inc.) were added to the cells. At several time points (1, 2 and 4 hours), transfected cells were harvested, fixed with 4% formalin/1% glutaraldehyde, and resuspended in PBS buffer for analysis. The results from the fluorescently labeled MDA‐MB‐231 cells were then acquired using Cytoflex (Beckman Coulter) and analyzed using CytExpert, version 2.3.0.84 (Beckman Coulter) on the flow cytometer.
Figure S2. Uptake of cyanine 5-labeled mRNA uptake into MDA-MB-231 cells with different peptide carriers. The percentages of cells containing labeled mRNA 1, 2, 4 hours after transfection with H3K(+H)4b (upper panel) or with H3K4b (lower panel).

trypsin = assay: Stability of HK polyplexes to enzymatic degradation; assay type: in vitro ADME; details: trypsin (0.025%) 30 or 60 min; HK (0.5, 1, 4 µg):mRNA (1 µg); release of mRNA on 1% agarose gel
Method: After preparation of the H3K4b‐ or H3k(+H)4b‐mRNA polyplexes [w:w; HK (0.5, 1 or 4 μg):mRNA (1 μg)], these polyplexes were incubated with trypsin (0.025%) for 30 or 60 minutes. The HK polyplexes were then loaded on a 1% agarose gel and electrophoresis was carried out at 75 V for 30 minutes in TAE buffer. The gel was stained in a TAE buffer containing ethidium bromide (1 μg/ml) for 10 minutes.
[picture] Figure S3. Stability of HK polyplexes to enzymatic degradation. After preparation of the H3K4b or H3k(+H)4b mRNA polyplexes (wt:wt; HK (0.5, 1, 4 µg):mRNA (1 µg)), these polyplexes were incubated with trypsin (0.025%) for 30 or 60 min. The HK polyplexes were then loaded on a 1% agarose gel and electrophoresis was carried out at 75 V for 30 min in TAE buffer. The gel was stained in a TAE buffer containing ethidium bromide (1 µg/ml) for 10 min.

cytokines = details: in vitro and in vivo; cited from earlier work

R = KHHHKHHHKHHHHKHHHK [H3K(+H)4b, four‐branched analogue of H3K4b with one extra histidine in the second ‐HHHK‐ motif]
% Viability (MDA‐MB‐231 cells [1]): 96.3%
Aggregates of polyplexes seen by fluorescence microscopy (MDA‐MB‐231 cells [2]): not observed
Localization of polyplexes within acidic endosomal vesicles (MDA‐MB‐231 cells [2]; 4 hours in Opti‐MEM, red/green ratios on 20 vesicles, p < 0.001): localized within the acidic endosomal vesicles significantly more than H3K4b polyplexes
Uptake of Cy5-labelled mRNA polyplexes into cells (MDA‐MB‐231 cells [3]): imported into the cells more than H3K4b polyplexes
Stability of mRNA polyplex to trypsin (trypsin): reduced stability to trypsin at the 1:2 and 1:1 ratios compared to the H3k(+H)4b polyplex

R = KHHHKHHHKHHHKHHHK [H3K4b]
% Viability (MDA‐MB‐231 cells [1]): 95.6%
Aggregates of polyplexes seen by fluorescence microscopy (MDA‐MB‐231 cells [2]): likely extracellular aggregates
Cytokine induction by siRNA polyplex (cytokines): induced cytokines to a significantly greater degree in vitro and in vivo than the H3K(+H)4b‐siRNA polyplexes
